These results are taken from patent US4570005A, “Process for the preparation of 2-arylpropyl ether or thioether derivatives” (priority 1980, dated 1986).

The subject of one series is two-spotted spider mite. In words: Test 6: Effect on Two-Spotted Spider mite Adults. Type of series: in vivo. The note with it: 100 ppm, adults, 24 hours, 25° C; for mortality at 100 ppm: Tetranychus urticae, read-out: Mortality (%).
Series [1] has as its system sensitive green rice leafhopper (collected at Chigasaki). In words: whole plant or invertebrate. Type of series: in vivo. Conditions: Nephotettix cincticeps, sensitive female adults, 24 hours, read-out: Mortality (%), Green Rice Leafhopper Collected at Chigasaki. The essentials: (§1)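 Emulsifiable concentrate diluted to 100 or 20 ppm was sprayed, 3 ml per pot, onto hydroponic rice seedlings at 2–3 leaves. After air-drying, 10 female adults of the Nakagawara (resistant) or Chigasaki (sensitive) strain were released per caged pot. Mortality was counted at 24 h and averaged over three pots.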

The nature of series [2]: Test 9: Toxicity Test (acute oral toxicity, mice). Conditions: mouse, in vivo, po. How it is done: (§2) A predetermined amount of a solution or suspension of a test compound in corn oil was orally administered to male mice having a body weight of 19 to 23 g (0.2 ml per 10 g of the body weight). After 7 days, the number of killed mice was counted and the influences on the mice were examined.

Another series has as its system German cockroach. In words: Test 7: Effect on German Cockroach. It is filed as in vivo. Conditions: Blattella germanica, male adults, agonized and killed after 24 hours, read-out: Mortality (%); for mortality at 10 mg/m2: 10 mg/m^2; for mortality at 50 mg/m2: 50 mg/m^2. The gist of the method:
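Petri dish floors were treated with 50 or 10 mg/m2 of compound (diluted emulsifiable concentrate) and air-dried. Ten male adult German cockroaches per dish were held at 25° C. Agonized and dead insects were counted after 24 hours, averaging two dishes.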

A short description of the next series: Test 8: Fish Toxicity. Type of series: in vivo. The note with it: carp, water; concentration at which 1/2 of the test fishes were killed within 48 hours; read-out: Fish Toxicity, TLm48. The protocol: A water tank having a width of 60 cm, a length of 30 cm and a height of 40 cm was filled with water, and 10 yearling carps having a body length of about 5 cm were set free in the tank and adapted to the environment in the tank. A test compound was applied so that the concentration in water was 10, 1 or 0.1 ppm. After 48 hours, the numbers of killed and living carps were counted and the influences on the fishes were examined.

Another series concerns green peach aphid. Kind of series: Test 5: Effect on Green Peach Aphid. The note with it: Myzus persicae; 100 ppm; mortality class; 24 hours; read-out: Insecticidal Activity. It is filed as in vivo. The essentials:
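Eggplant seedlings with 3–4 leaves were infested with aphids and sprayed with a 100 ppm aqueous dilution of an emulsifiable concentrate, then kept in a glasshouse. Living insects were counted after 24 h. Mortality is averaged over three pots and graded A (>95%), B (80–95%), C (50–80%) or D (<50%).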

Series [3] relates to tobacco cutworm. In words: Test 2: Tobacco Cutworm Larva Dipping Test, mortality after 24 hours. It is filed as in vivo. Conditions: 24 hours. The essentials: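 Second- and fifth-instar larvae dipped 5 s in a water dilution of an emulsifiable concentrate at 100 or 20 ppm, blotted, then held on artificial diet at 25° C. Dead and living larvae counted after 24 hours; mortality averaged over three cups.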

Series [4] has as its system tobacco cutworm. Kind of series: Test 1: Effect on Tobacco Cutworm (leaf immersion), mortality after 24 hours. Type of series: in vivo. Conditions: second-instar larvae, 25° C. The essentials:
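Sweet-potato leaves dipped 10 s in emulsifiable concentrate diluted to 100 or 20 ppm, air-dried, then exposed to second-instar larvae at 25 °C. Mortality counted after 24 h, averaged over three cups.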

The subject of the next series is diamond back moth. In words: Test 4: Effect on Diamond Back Moth. It is filed as in vivo. The note with it: Plutella, third-instar larvae, 24 hours, read-out: Mortality (%). The gist of the method: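 Compound formulated as an emulsifiable concentrate, diluted in water to 100 or 20 ppm and sprayed at 3 ml per cup onto cabbage leaves holding 10 third-instar larvae. Mortality counted after 24 hours; mean of three cups.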

Series [5] deals with resistant green rice leafhopper (collected at Nakagawara). Kind of series: Test 3: Effect on Resistant Green Rice Leafhopper (collected at Nakagawara). Type of series: in vivo, Nephotettix cincticeps Uhler (Green rice leafhopper). Conditions: Nephotettix cincticeps, 24 h, read-out: Mortality (%), Green Rice Leafhopper Collected at Nakagawara. The essentials:
as §1

The test system of another series is plants of Solanacede. Conditions: Fenvalerate; general statement; cited from earlier work.
Another series relates to male mice. In words: Test 9: Toxicity Test (acute oral toxicity, mice). The note with it: oral; corn oil; male mice; 7 days. The protocol:
as §2

Setting [6] is: fifth-instar larvae, read-out: Motality (%), Fifth-Instar Larvae.
Setting [7] is: second-instar larvae, read-out: Motality (%), Second-Instar Larvae.

Converted amounts (≈) assume the structure as drawn.

Consider `CC(C)(COCc1cccc(Oc2ccc(F)cc2)c1)c1ccc(Cl)cc1` [Compound 6, 3-(4-Fluorophenoxy)benzyl 2-(4-chlorophenyl)-2-methylpropyl ether], for which the mortality at 100 ppm was 100% in the series on two-spotted spider mite; 100% in series [1]; above 95% with green peach aphid; 100% with tobacco cutworm [3] (setting [6]); 100% in the series on tobacco cutworm [3] (setting [7]); 100% with tobacco cutworm [4]. The mortality at 100 ppm (in the series with diamond back moth; in series [5]) was 100% in each case. Moreover, the mortality at 20 ppm (in series [1]; in the series with tobacco cutworm [3] (setting [6]); in the series on tobacco cutworm [3] (setting [7]); with tobacco cutworm [4]; in the series on diamond back moth; in series [5]) was 100% throughout. Also, the LD50 (usually the dose expected to kill half of the subjects tested) at 168 h in series [2] was above 500 mg/kg. Also, the mortality at 10 mg/m2 in the series with German cockroach worked out at 100%. The mortality at 50 mg/m2 in the series on German cockroach stood at 100%. For the same compound, the LC50 at 48 h in the series “Test 8: Fish Toxicity” was above 10 µg/mL.

Turning to `CC(C)(COCc1cccc(Oc2ccccc2)c1)c1ccc2c(c1)OCO2` [Compound 7, 3-Phenoxybenzyl 2-(3,4-methylenedioxyphenyl)-2-methylpropyl ether], the mortality at 100 ppm with two-spotted spider mite is 100%; in series [1], 100%; in the series with green peach aphid it was above 95%; with tobacco cutworm [3] (setting [6]), 100%; in the series on tobacco cutworm [3] (setting [7]), 100%; in the series with tobacco cutworm [4], 100%. Also, the mortality at 100 ppm (with diamond back moth; in series [5]) was 100% in each case. The mortality at 20 ppm was found to be 90% in [1]; 50% in the series with tobacco cutworm [3] (setting [6]); 60% in the series on tobacco cutworm [3] (setting [7]); 80% in the series on tobacco cutworm [4]; 80% in the series on diamond back moth; 100% in series [5]. In addition, the LD50 at 168 h in series [2] is above 500 mg/kg. The mortality at 10 mg/m2 with German cockroach was determined as 100%. In the series on German cockroach, the mortality at 50 mg/m2 stood at 100%. Further, in “Test 8: Fish Toxicity”, the LC50 at 48 h is above 10 µg/mL.

As for `CC(C)(COCc1cccc(Oc2ccc(F)cc2)c1)c1ccc(OC(F)F)cc1` [Compound 11, 3-(4-Fluorophenoxy)benzyl 2-(4-difluoromethoxyphenyl)-2-methylpropyl ether], the mortality at 100 ppm in the series on two-spotted spider mite is 100%; in series [1] it was 100%; in the series with green peach aphid, above 95%; in the series on tobacco cutworm [3] (setting [6]) it was 100%; in the series on tobacco cutworm [3] (setting [7]), 100%; with tobacco cutworm [4], 100%. The mortality at 100 ppm (in the series on diamond back moth; in series [5]) was 100% each time. The mortality at 20 ppm was 100% in series [1]; 70% with tobacco cutworm [3] (setting [6]); 90% in the series on tobacco cutworm [3] (setting [7]); 100% with tobacco cutworm [4]; 90% with diamond back moth; 100% in series [5]. Moreover, the 50% lethal dose (LD50) at 168 h in [2] was above 500 mg/kg. Also, the mortality at 10 mg/m2 in the series with German cockroach is 100%. For the same compound, in the series on German cockroach, the mortality at 50 mg/m2 came to 100%. In the series “Test 8: Fish Toxicity”, the LC50 at 48 h was 0.01 to 0.05 µg/mL (≈ 0.024 to 0.12 µM).

For the compound `COc1ccc(Oc2cccc(COCC(C)(C)c3ccc(Cl)c(Cl)c3)c2)cc1` [Compound 41, 3-(4-methoxyphenoxy)benzyl 2-(3,4-dichlorophenyl)-2-methylpropyl ether], the mortality at 100 ppm in the series on two-spotted spider mite was 100%; in series [1], 100%; in the series on green peach aphid, above 95%; in series [5], 100%. For the same compound, the mortality at 20 ppm in series [1] and in series [5] was 100% throughout. Also, the 50% lethal dose (LD50) at 168 h in [2] was above 500 mg/kg. Moreover, the mortality at 10 mg/m2 with German cockroach is 100%. In addition, in the series on German cockroach, the mortality at 50 mg/m2 is 100%. In “Test 8: Fish Toxicity”, the LC50 at 48 h was above 10 µg/mL.

Turning to `CC(C)(COCc1cccc(Oc2ccccc2)c1)c1ccc(Cl)c(Cl)c1` [Compound 48, 3-Phenoxybenzyl 2-(3,4-dichlorophenyl)-2-methylpropyl ether], the mortality at 100 ppm in the series on two-spotted spider mite was 100%; in [1] it was 100%; in the series on green peach aphid, above 95%; in the series with tobacco cutworm [3] (setting [6]), 70%; in the series on tobacco cutworm [3] (setting [7]), 90%; in the series with tobacco cutworm [4] it was 100%. In addition, the mortality at 100 ppm (in the series with diamond back moth; in [5]) was 100% throughout. The mortality at 20 ppm in series [1] was 100%; in the series with tobacco cutworm [3] (setting [6]), 60%; with tobacco cutworm [3] (setting [7]) it was 70%; in the series on tobacco cutworm [4], 80%; with diamond back moth, 100%; in series [5], 100%. This compound had a median lethal dose (LD50) at 168 h in series [2] above 500 mg/kg. In the series on German cockroach, the mortality at 10 mg/m2 came to 100%. In the series with German cockroach, the mortality at 50 mg/m2 amounted to 100%. Further, the LC50 at 48 h in the series “Test 8: Fish Toxicity” is above 10 µg/mL.

Turning to `CC(C)(COCc1cccc(Oc2ccccc2)c1)c1ccc(Cl)cc1` [Compound 49, 3-Phenoxybenzyl 2-(4-chlorophenyl)-2-methylpropyl ether], the mortality at 100 ppm is 100% in the series on two-spotted spider mite; 100% in series [1]; above 95% in the series with green peach aphid; 100% in the series with tobacco cutworm [3] (setting [6]); 100% in the series with tobacco cutworm [3] (setting [7]); 100% in the series on tobacco cutworm [4]. Besides, the mortality at 100 ppm (with diamond back moth; in series [5]) was 100% throughout. The mortality at 20 ppm (in series [1]; with tobacco cutworm [3] (setting [6]); in the series on tobacco cutworm [3] (setting [7]); in the series on tobacco cutworm [4]; in the series with diamond back moth; in series [5]) was 100% throughout. For the same compound, the LD50 at 168 h in [2] was above 500 mg/kg. Moreover, the mortality at 10 mg/m2 in the series with German cockroach was 100%. Moreover, the mortality at 50 mg/m2 in the series with German cockroach is 100%. Also, the LC50 at 48 h in the series “Test 8: Fish Toxicity” is above 10 µg/mL.

Turning to `CCC(C)(COCc1cccc(Oc2ccccc2)c1)c1ccc(Cl)cc1` (stereo not shown) [Compound 50, 3-Phenoxybenzyl 2-(4-chlorophenyl)-2-ethylpropyl ether], the mortality at 100 ppm in the series with two-spotted spider mite was 100%; in [1], 100%; in the series on green peach aphid, above 95%; with tobacco cutworm [3] (setting [6]) it was 100%; with tobacco cutworm [3] (setting [7]), 100%; in the series with tobacco cutworm [4], 100%. Besides, the mortality at 100 ppm (in the series with diamond back moth; in series [5]) was 100% throughout. Besides, the mortality at 20 ppm in [1] came to 80%; with tobacco cutworm [3] (setting [6]), 90%; in the series on tobacco cutworm [3] (setting [7]) it was 100%; with tobacco cutworm [4], 100%; with diamond back moth it was 100%; in series [5], 90%. The compound further came in with an LD50 at 168 h in series [2] above 500 mg/kg. For the same compound, in the series with German cockroach, the mortality at 10 mg/m2 is 100%. Further, the mortality at 50 mg/m2 in the series with German cockroach was 100%. Besides, the LC50 at 48 h in the series “Test 8: Fish Toxicity” was above 10 µg/mL.

Consider `CC(C)C(C(=O)OC(C#N)c1cccc(Oc2ccccc2)c1)c1ccc(Cl)cc1` (stereo not shown) [Fenvalerate], for which the “phyto-toxicity to plants of Solanacede” value with plants of Solanacede is “observed”.

In the case of “Pyrethrin [Comparative Compound (c), reference compound]”, in the series with two-spotted spider mite, the “Mortality (%)” value came out at 0%. The “Acute Toxicity at Oral Administration, LD-50” value with male mice amounted to 340 mg/kg.
